± gives the expanded uncertainty stated by the source.
Conditions: Liquid, Closed cell (Static) method

SMILES: FCC(F)(F)F [1,1,1,2-tetrafluoroethane]
- vapor or sublimation pressure (295.4 K): 612 ± 1.3 kPa
- vapor or sublimation pressure (300 K): 704.4 ± 1.5 kPa
- vapor or sublimation pressure (304 K): 788.5 ± 1.6 kPa

From the NIST ThermoML archive (doi:10.1021/je060330k)
